Measurements as given in BindingDB's records for doi:10.1021/jm201449n (Cephalon, 2012).

Biological target: Mitogen-activated protein kinase kinase kinase 7 (TAK1/MAP3K7) (Homo sapiens) (UniProt O43318)
Assay: Inhibition of human TAK1 using ATP as substrate

Chain of Mitogen-activated protein kinase kinase kinase 7 (TAK1/MAP3K7) (Homo sapiens) (O43318 whole entry, looked up): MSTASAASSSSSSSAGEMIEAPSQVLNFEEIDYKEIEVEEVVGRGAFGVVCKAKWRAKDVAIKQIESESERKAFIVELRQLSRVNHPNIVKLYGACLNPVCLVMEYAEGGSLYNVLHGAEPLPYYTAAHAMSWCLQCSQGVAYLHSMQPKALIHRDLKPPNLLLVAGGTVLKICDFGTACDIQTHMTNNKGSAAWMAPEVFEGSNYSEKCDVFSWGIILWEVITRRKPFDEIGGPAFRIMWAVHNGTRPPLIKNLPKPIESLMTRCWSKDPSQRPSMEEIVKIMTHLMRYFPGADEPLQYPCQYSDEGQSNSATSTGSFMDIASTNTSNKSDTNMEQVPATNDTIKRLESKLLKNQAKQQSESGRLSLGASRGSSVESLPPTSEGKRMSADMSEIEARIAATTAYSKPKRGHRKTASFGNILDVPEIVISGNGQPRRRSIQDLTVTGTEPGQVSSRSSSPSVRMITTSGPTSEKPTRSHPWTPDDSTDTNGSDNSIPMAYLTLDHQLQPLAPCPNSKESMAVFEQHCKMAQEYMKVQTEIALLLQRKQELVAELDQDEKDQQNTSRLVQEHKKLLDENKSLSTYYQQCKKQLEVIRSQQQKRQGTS

CC(C)Cn1c2ccc(Nc3ncccn3)cc2c2c3c(c4c(c21)CCc1nn(C)cc1-4)C(=O)NC3 [CEP-11981]
IC50: 14 nM
